Test results published in patent US8697385B1, “Protein controlling synthesis of collagen and associated methods” (Florida State University Research Foundation, Inc., priority 2009, dated 2014).

Assays:
[1] = test system: scleroderma fibroblasts; assay: Apoptosis of primary scleroderma fibroblasts; format: cell-based; conditions: ML-7 did not have an effect
Source text: To assess the role of nonmuscle myosin in collagen synthesis, we disrupted nonmuscle myosin filaments in two different cell types: primary human lung fibroblasts and primary scleroderma skin fibroblasts. These cells are responsible for lung and skin fibrosis. […] To assess the effect of ML-7 on collagen protein synthesis and secretion, we analyzed the levels of collagen α1(I) and α2(I) polypeptides in the intracellularly space and in the medium using Western blot analysis and chain-specific antibodies.^12,15,31-33 ML-7 treatment profoundly affected the secretion of type I collagen, but the effect differed in the two types of primary fibroblasts. […] To assess if the secreted α1(I) polypeptides had been secreted as disulfide-bonded homotrimers, we performed Western blot analysis under nonreducing conditions (FIG. 3d). […] However, since α2(I) polypeptide was absent in the cell medium of ML-7-treated cells, the bands must represent disulfide-bonded collagen α1(I) chains. The α2(I) antibody could not recognize the polypeptide under nonreducing conditions, so we could not directly test its presence in S—S bonded collagen. Since there are reports that ML-7 can cause apoptosis of epithelial cells, we tested if ML-7 caused apoptosis of the primary fibroblasts. […] Therefore, we concluded that increased apoptosis is not responsible for the observed effects of ML-7. […]

[2] = test system: calnexin; assay: Immunostaining for the ER marker protein calnexin; format: cell-based; conditions: ML-7-treated cells vs control cells
Protocol: Protein concentration was estimated by the Bradford assay, with bovine serum albumin as standard.^51 Western blot analyses of cellular proteins were performed using 50 μg of protein. For Western blot analysis of secreted proteins, equal numbers of cells were seeded, serum-free medium was added to the cells, and incubation continued for 3 h. The medium was collected, and an aliquot was analyzed directly by Western blot analysis. Use of serum free medium in collecting secreted proteins is essential because fetal calf serum contains substantial amounts of collagen and fibronectin.^15,31 For immunostaining, cells were seeded onto glass coverslips. […]
To assess the role of nonmuscle myosin in collagen synthesis, we disrupted nonmuscle myosin filaments in two different cell types: primary human lung fibroblasts and primary scleroderma skin fibroblasts. […] To assess the effect of ML-7 on collagen protein synthesis and secretion, we analyzed the levels of collagen α1(I) and α2(I) polypeptides in the intracellularly space and in the medium using Western blot analysis and chain-specific antibodies.^12,15,31-33 ML-7 treatment profoundly affected the secretion of type I collagen, but the effect differed in the two types of primary fibroblasts. […]

O=S(=O)(c1cccc2c(I)cccc12)N1CCCNCC1 [ML-7]
percentage of apoptotic cells [1]: 0.3%
calnexin immunostaining (organization of the ER) [2]: did not show a difference
